Structures can show the parent of a compound that is named as a salt.
System: HCT116
Assay: efficacy (fitted maximal change in viability relative to DMSO control); higher = less cytotoxic (negative = loss of viability)
Settings: 48 h
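Further: Luminescence-based viability readout, five doses per compound, normalized against on-plate DMSO and empty-well controls, followed by dose-response curve fitting for every drug.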

Compound | efficacy
CC[C@@H]1C(=O)N(C)c2cnc(Nc3ccc(C(=O)NC4CCN(C)CC4)cc3OC)nc2N1C1CCCC1 [BI-2536] | -71.6%
COC1=CC(=CC(=C1CN(C)C)OC)\C2=C\N(C)C(=O)C3=C2C=CN=C3 [BI-7273] | -29.9%
C/C(=C\C(=O)Nc1ccccc1C(=O)O)c1ccc2ccccc2c1 [BIBR-1532] | -69.1%
C=CC(=O)N[C@H]1CCOC[C@H]1Nc1ncc2cc(-c3c(Cl)c(OC)cc(OC)c3Cl)ccc2n1 [BLU-554] | -30.8%
C=CC(=O)Nc1cccc(C)c1Nc1ncc2cc(-c3c(Cl)c(OC)cc(OC)c3Cl)ccc2n1 [BLU-9931] | -50.4%
C[N]1N=CN=C1[C@@H]2[C@H](NC3=CC(=CC4=C3\C2=N/NC4=O)F)C5=CC=C(F)C=C5 [BMN-673] | -16.8%
CCNC(=O)Nc1ncc(-c2cc(-c3c(C)cc(OC)cc3C)nc(-c3cnccn3)n2)s1 [BMS-4] | 14%
CN(CC(=O)N(Cc1ccc(C2CCCCC2)cc1)c1ccc(C(=O)O)c(O)c1)[S+](=O)([O-])c1c(F)c(F)c(F)c(F)c1F [BP-1-102] | -10.2%
O=C(Cc1ccccc1)Nc1nnc(CCSCCc2nnc(NC(=O)Cc3ccccc3)s2)s1 [BPTES] | -25%
CC(C)C[C@@H]1NC(=O)[C@@H](C(C)C)NC(=O)[C@@H]2CCCN2C(=O)[C@@H](CC(=O)O)NC(=O)[C@@H](Cc2c[nH]c3ccccc23)NC1=O [BQ-123] | -9.37%
C[N]1N=C(C)C2=C1OC(=C(/C#N)C2C3=CC=C(C=C3)C(F)(F)F)/N (stereo unspecified) [BQU-57] | -30.8%
CC(C)c1cnn2c(NCc3ccccc3)cc(NCCCCCCN)nc12 [BS-181] | -106%
Cc1c(Cl)cccc1[S+](=O)([O-])Nc1nc(CCN2CCOCC2=O)cs1 [BVT-3498] | -14.1%
O=C(NCCCNc1nc(Nc2cccc(NC(=O)N3CCCC3)c2)ncc1I)c1cccs1 [BX-795] | -76.5%
CCC(C)C(N)\C1=N\C(CS1)C(=O)N[C@@H](CC(C)C)C(=O)N[C@H](CCC(O)=O)C(=O)N[C@@H]([C@@H](C)CC)C(=O)N[C@H]2CCCCNC(=O)[C@H](CC(N)=O)NC(=O)[C@@H](CC(O)=O)NC(=O)[C@H](CC3=CN=C[NH]3)NC(=O)[C@@H](CC4=CC=CC=C4)NC(=O)[C@@H](NC(=O)[C@@H](CCCN)NC2=O)[C@@H](C)CC (stereo partly specified) [Bacitracin (Zinc)] | -26.9%
OC1=CC2=C(C(=O)\C=C(/O2)C3=CC=CC=C3)C(=C1O)O [Baicalein] | -14.7%
CNC1CCCN(C1)C2=C(F)C=C3C(=O)\C(=C/N(C4CC4)C3=C2OC)C(O)=O (stereo unspecified) [Balofloxacin] | -10.2%
O=C(O)CCNC(=O)c1ccc(/N=N/c2ccc(O)c(C(=O)O)c2)cc1 [Balsalazide disodium] | -11.7%
Cc1onc(-c2ccc(F)cc2)c1COc1ccc(C(=O)N2CC[S+](=O)([O-])CC2)cn1 [Basmisanil] | -18.7%
CNC(=O)[C@H](Cc1ccccc1)NC(=O)[C@H](CC(C)C)[C@H](CSc1cccs1)C(=O)NO [Batimastat] | -46.2%
CCOC(=O)[C@H](CCc1ccccc1)N[C@H]1CCc2ccccc2N(CC(=O)O)C1=O [Benazepril] | -8.42%
Cl.NC(CO)C(=O)NNCc1ccc(O)c(O)c1O (stereo unspecified) [Benserazide] | -65.3%
CCCCC(=O)O[C@@]1([C@@H](C)C[C@H]2[C@@H]3CCC/4=C/C(=O)/C=C\[C@]4(C)[C@@]3(F)[C@@H](O)C[C@]12C)C(=O)CO [Betamethasone valerate] | -7.12%
CC(C)NCC(O)COc1ccc(CCOCC2CC2)cc1 (stereo unspecified) [Betaxolol] | -9.42%
CC(C[N+](C)(C)C)OC(N)=O (stereo unspecified) [Bethanechol chloride] | -25.8%
C=C(C)[C@@H]1CC[C@]2(C(=O)O)CC[C@]3(C)[C@H](CC[C@@H]4[C@@]5(C)CC[C@H](O)C(C)(C)[C@@H]5CC[C@]43C)[C@@H]12 [Betulinic acid] | 14.5%

Compound | efficacy
C=C(c1ccc(C(=O)O)cc1)c1cc2c(cc1C)C(C)(C)CCC2(C)C [Bexarotene] | -19.6%
CC(O)(C[S+](=O)([O-])c1ccc(F)cc1)C(=O)Nc1ccc(C#N)c(C(F)(F)F)c1 (stereo unspecified) [Bicalutamide] | -14.2%
CCNC(=O)CCC/C=C\C[C@@H]1[C@@H](/C=C/C(O)CCc2ccccc2)[C@@H](O)C[C@@H]1O (stereo partly specified) [Bimatoprost] | -24.4%
COC1=CC=C(C=C1)C/2=C/OC3=C(C(=CC(=C3)O)O)C2=O [Biochanin A] | -34.7%
N=C1S/C(=C\c2ccc(-c3ccc4c(c3)C(=O)NC4=O)o2)C(=O)N1c1ccc(Br)cc1 [Bioymifi] | -15.3%
OC(CCN1CCCCC1)(C2CC\3CC2\C=C3)C4=CC=CC=C4 (stereo unspecified) [Biperiden] | -34.7%
CC[C@H](NC(=O)[C@H](C)NC)C(=O)N1C[C@@H](O)C[C@H]1Cc1c(-c2[nH]c3cc(F)ccc3c2C[C@@H]2C[C@H](O)CN2C(=O)[C@H](CC)NC(=O)[C@H](C)NC)[nH]c2cc(F)ccc12 [Birinapant] | -49.9%
CC/C(=C(/c1ccc(/C=C/C(=O)O)cc1)c1ccc2[nH]ncc2c1)c1ccc(F)cc1Cl [Brilanestrant] | -35.5%
CCCCCCCCCCCCCCCCOCCCO[P](O)(=O)COC(CO)CN1/C=C\C(=N/C1=O)N (stereo unspecified) [Brincidofovir] | -6.44%
CN(Cc1cc(Br)cc(Br)c1N)C1CCCCC1 [Bromhexine hydrochloride] | -27.2%
CCCCOc1ccc(CC(=O)NO)cc1 [Bufexamac] | -14.9%
COc1cc(OC)c(C(=O)CCCN2CCCC2)c(OC)c1 [Buflomedil hydrochloride] | -7.04%
CCCCNc1cc(C(=O)O)cc([S+](N)(=O)[O-])c1Oc1ccccc1 [Bumetanide] | -7.8%
C[S+](=O)([O-])OCCCCO[S+](C)(=O)[O-] [Busulfan] | -5.76%
C=C1C(=O)OC(CCCCCCCC)C1C(=O)O (stereo unspecified) [C75] | -6.41%
CC1=NN(c2ccc(C(=O)O)cc2)C(=O)/C1=C/c1ccc(-c2cc(C)c(C)cc2[N+](=O)[O-])o1 [C-646] | -21%
O=C(NCc1ccccc1)[C@H](Cc1ccccc1)NC(=O)[C@H]1O[C@@H]1C(=O)NCCc1ccc(O)cc1 [CAA-0225] | -24.8%
CN1\C=C(/N=C(NC2=CC=C(C=C2)C(=O)N3CCOCC3)\C1=O)C4=C(C)C(=CC=C4)NC(=O)C5=CC=C(C=C5)C(C)(C)C [CGI-1746] | -29.2%
Clc1ccc(-c2nc3sccn3c2/C=N/OCc2ccc(Cl)c(Cl)c2)cc1 [CITCO] | -19.4%
CC(C)C/1=C(NC2=C(C=N[N]2C1=O)C#N)\C3=CC=CC=C3 [CPI-455] | -11.2%
O=C(O)CCCCC(CCSCc1ccccc1)SCc1ccccc1 (stereo unspecified) [CPI-613] | -19.4%
CC(=O)Nc1ccc(C(=O)NC(C)(C)C)cc1 [CPI-1189] | -10.3%
COC/1=C(\CNC(=O)C2=C(C)[N]([C@H](C)C3CCN(CC3)CC(F)(F)F)C4=C2C=CC=C4)C(=O)N/C(=C1)C [CPI-1205] | -27.1%
CCC/1=C(/NC2=C(C=N[N]2C1=O)C#N)C3=CC=CC=C3C [CPI-4203] | 17.2%
CN[C@@H](C)C(=O)N[C@H](C(=O)N1CCC[C@H]1C(=O)Nc1sc(-c2ncco2)nc1-c1ccccc1)C1CCCCC1 [CUDC-427] | -17%

— the supplement of paper PMC10290057
